Assay results: patent publication US20230192765A1, “PEPTIDES TARGETING SHP2 AND USES THEREOF” (UNIVERSITÀ DEGLI STUDI DI ROMA "TOR VERGATA", priority 2020, published 2023)
Values belong to the compound of their own block, whether it stands above or below them. *1 amine or outer side, *2 acyl side, *3 side chain or, on linkers, in order; H or OH if unused. Where a SMILES comes first, the peptide text is derived from it. [ ]: non-standard residue; d: D form. 5,6‑carboxyfluorescein = CF, 5,6-carboxyfluorescein label; pY = N[C@@H](Cc1ccc(OP(=O)(O)O)cc1)C(=O)O; Cysteamide = C(CS[*:3])N[*:1]

Key:
[1] = test system: NIH3T3 cells; experiment: Peptide toxicity in the cell uptake experiments (Sytox); type: cell-based; conditions: Pep1 at 10 µM
Method: Cell viability in the FACS experiment was determined by using Sytox fluorescence.
Cells were incubated for different times and then washed, collected and stained with SYTOX blue (1 mM, Invitrogen™) to identify the viable population and the green fluorescence of CFP9W5 was recordered to measure peptide uptake. Data were analysed with Kaluza Analysis Software (Beckman Coulter).

[2] = target: T1, N-SH2 domain of SHP2 (Homo sapiens, UniProt Q06124); experiment: Fluorescence anisotropy displacement assay; type: binding
T1 construct: constructs of the N-SH2 (residues 2-111), C-SH2 (109-217) and PTP (212-528) domains; His6 (esaHis); made in house; host or cells: E. coli (DE3) Rosetta2
T1 sequence (Q06124 2-111): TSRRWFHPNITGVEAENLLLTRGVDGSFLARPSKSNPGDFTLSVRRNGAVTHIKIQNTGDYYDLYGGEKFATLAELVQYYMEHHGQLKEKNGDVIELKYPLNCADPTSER

[3] = target: T2, SHP2 PTP domain (SHP2 construct lacking the N-SH2 domain) (Homo sapiens, UniProt Q06124); experiment: Malachite green phosphatase assay, dephosphorylation of phosphopeptides; type: biochemical; conditions: phosphopeptide 100 µM; enzyme 95 nM
T2 construct: the isolated PTP domain preceded by the C-SH2 domain (residues 105-528); His6 (esaHis); made in house; host or cells: E. coli (DE3) Rosetta2
T2 sequence (Q06124 105-528): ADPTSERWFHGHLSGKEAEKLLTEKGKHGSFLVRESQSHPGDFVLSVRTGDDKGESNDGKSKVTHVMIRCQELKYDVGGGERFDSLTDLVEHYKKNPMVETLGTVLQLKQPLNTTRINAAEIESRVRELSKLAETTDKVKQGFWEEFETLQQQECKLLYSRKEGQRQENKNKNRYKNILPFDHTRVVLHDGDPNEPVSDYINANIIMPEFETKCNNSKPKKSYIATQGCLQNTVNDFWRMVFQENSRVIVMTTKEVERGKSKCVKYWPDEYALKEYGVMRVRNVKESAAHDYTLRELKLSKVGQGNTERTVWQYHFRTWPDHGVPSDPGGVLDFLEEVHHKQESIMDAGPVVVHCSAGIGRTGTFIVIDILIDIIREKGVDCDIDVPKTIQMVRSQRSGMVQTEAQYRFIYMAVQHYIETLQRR
Method: A SHP2 construct lacking the N-SH2 domain (i.e. the first 104 residues) was used at a 95 nM concentration. Phosphopeptides were added at a 100 µM concentration and the phosphate released was measured at different times. From the linear region of the phosphate versus time curve, the variation in absorbance at 655 nm in 1 min, due to phosphate released, was calculated and plotted.
The ability of SHP2 to dephosphorylate the phosphopeptides was evaluated through a malachite green phosphatase assay (PTP assay kit 1 Millipore, MA, USA). The BTAM peptide and the following monophosphorylated peptides derived from known SHP2 substrates were used for comparison: DKQVEpYLDLDL (SEQ ID NO:6) (GAB1Y657), EEENIpYSVPHD (SEQ ID NO:7) (p190A/RhoGAPY1105), and VDADEpYLIPQQ (SEQ ID NO:8) (EGFRY1016) (Primm) [Sun et al., 2009; Ren et al., 2011]. SHP2Δ104 or PTP (2.38 pmol) were incubated with 100 µM of each phosphopeptide (total volume 25 µl) for different times. The reaction was stopped by adding 100 µl of malachite green solution. After 15 min, absorbance was read at 655 nm using a microplate reader, and compared with a phosphate standard curve to determine the release of phosphate. Data obtained in the linear region of the curve were normalized on the reaction time (1 min).

[4] = target: T1, N-SH2 domain of SHP2; experiment: Fluorescence anisotropy direct binding assay, N-SH2 domain; conditions: for standard free energy of binding: assuming a 1 M standard state

Compound: CC(=O)N[C@@H](CCCCN)C(=O)N[C@@H](CCC(=O)O)C(=O)N[C@H](C(=O)N[C@@H](Cc1c[nH]c2ccccc12)C(=O)N[C@@H](Cc1c[nH]c2ccccc12)C(=O)N[C@@H](CCC(=O)O)C(=O)N[C@H](C(=O)N[C@@H](Cc1c[nH]c2ccccc12)C(=O)N[C@@H](Cc1c[nH]c2ccccc12)C(=O)N[C@H](C(=O)N[C@@H](CCC(=O)O)C(=O)N[C@@H](Cc1c[nH]c2ccccc12)C(=O)N[C@@H](CO)C(=O)N[C@@H](CCC(N)=O)C(=O)N1CCC[C@H]1C(=O)N[C@@H](CCCCN)C(=O)N[C@@H](CCCCN)C(=O)N[C@@H](CCCCN)C(=O)N[C@@H](CCCNC(=N)N)C(=O)N[C@@H](CCCCN)C(=O)N[C@H](C(=O)NCCS)C(C)C)[C@@H](C)O)[C@@H](C)O)[C@@H](C)O [Pep1, reference compound] (Ac-KETWWETWWTEWSQPKKKRKV-Cysteamide)
toxicity [1]: negligible

Compound: CC[C@H](C)[C@H](NC(=O)[C@H](Cc1ccc(OP(=O)(O)O)cc1)NC(=O)[C@H](CC(N)=O)NC(=O)[C@H](CC(C)C)NC(C)=O)C(=O)N[C@@H](CC(=O)O)C(=O)N[C@@H](CC(C)C)C(=O)N[C@@H](CC(=O)O)C(=O)N[C@@H](Cc1ccccc1)C(N)=O [Peptide P8F5, LN-pY-IDLDF] (Ac-LN[pY]IDLDF-NH2)
IC50 [2]: 16 ± 1 nM | Ki [2]: 9 ± 2 nM

Compound: CC[C@H](C)[C@H](NC(=O)[C@H](Cc1ccc(OP(=O)(O)O)cc1)NC(=O)[C@H](CC(N)=O)NC(=O)[C@H](CC(C)C)NC(C)=O)C(=O)N[C@@H](CC(=O)O)C(=O)N[C@@H](CC(C)C)C(=O)N[C@@H](CC(=O)O)C(=O)N[C@@H](Cc1c[nH]c2ccccc12)C(N)=O [Peptide P8W5, LN-pY-IDLDW]
dephosphorylation by SHP2 [3]: dephosphorylation was indeed observed, although to a lower extent than for other phosphopeptides

Compound: CF-GLN- Y-IDLDL ({5,6‑carboxyfluorescein}-GLNYIDLDL-NH2) [CF-P9Y0]
standard free energy of binding [4]: -7.07 ± 0.048 kcal/mol | affinity lower than phosphorylated peptide ([4]; unphosphorylated vs phosphorylated labeled peptide): approximately 100 times

Further lines, with some results ahead:

IC50 [2]: 47 ± 4 nM | Ki [2]: 25 ± 4 nM | effect of sequence length on the binding affinity ([2]; [CF-P9]=1.0 nM, [N-SH2]= 40 nM, relative to P9): No significant loss in affinity
Compound: CC[C@H](C)[C@H](NC(=O)[C@H](Cc1ccc(OP(=O)(O)O)cc1)NC(=O)[C@H](CC(N)=O)NC(=O)[C@H](CC(C)C)NC(C)=O)C(=O)N[C@@H](CC(=O)O)C(=O)N[C@@H](CC(C)C)C(=O)N[C@@H](CC(=O)O)C(=O)N[C@@H](CC(C)C)C(N)=O [Peptide P8, LN-pY-IDLDL] (Ac-LN[pY]IDLDL-NH2)
dephosphorylation by SHP2 [3]: dephosphorylation was indeed observed, although to a lower extent than for other phosphopeptides

IC50 [2]: 11 ± 1 nM | Ki [2]: 5 ± 2 nM
Compound: CC[C@H](C)[C@H](NC(=O)[C@H](Cc1ccc(OP(=O)(O)O)cc1)NC(=O)[C@H](CC(N)=O)NC(=O)[C@H](CC(C)C)NC(C)=O)C(=O)N[C@@H](CC(=O)O)C(=O)N[C@@H](CC(C)C)C(=O)N[C@@H](CCC(=O)O)C(=O)N[C@@H](Cc1c[nH]c2ccccc12)C(N)=O [Peptide P8E4W5, LN-pY-IDLEW] (Ac-LN[pY]IDLEW-NH2)

standard free energy of binding [4]: -9.94 ± 0.024 kcal/mol
Compound: CF-GLN-pY-IDLDL ({5,6‑carboxyfluorescein}-GLN[pY]IDLDL-NH2) [CF-P9]
